In ChEMBL document CHEMBL1201861, “Genomics of Drug Sensitity in Cancer screening data, Wellcome Trust Sanger Institute”:

How the values were obtained:
Test in all cases: cells
Settings in all cases: Homo sapiens
NEC8 = type: functional, cell-based;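 further: growth inhibition of human NEC8 cells, read out by a cell viability assay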
Description: SANGER: Inhibition of human NEC8 cell growth in a cell viability assay.

Lu-65 = type: functional, cell-based;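 further: growth inhibition of Lu-65 cancer cells, read out by a cell viability assay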
Description: SANGER: Inhibition of human LU-65 cell growth in a cell viability assay.

BE-13 = type: functional, cell-based;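 further: growth inhibition of human BE-13 cells, measured with a cell viability assay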
Description: SANGER: Inhibition of human BE-13 cell growth in a cell viability assay.

G-401 = type: functional, cell-based
Description: SANGER: Inhibition of human G-401 cell growth in a cell viability assay.

CAL-33 = type: functional, cell-based;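 further: growth inhibition of CAL-33 cells, read out with a cell viability assay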
Description: SANGER: Inhibition of human CAL-33 cell growth in a cell viability assay.

HO-1-N-1 = type: functional, cell-based;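 further: growth inhibition of human HO-1-N-1 cells, read out with a cell viability assay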
Description: SANGER: Inhibition of human HO-1-N-1 cell growth in a cell viability assay.

Mo = type: functional, cell-based
Description: SANGER: Inhibition of human Mo-T cell growth in a cell viability assay.

SiHa = type: functional, cell-based;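 further: Viability-based readout of growth inhibition in SiHa cells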
Description: SANGER: Inhibition of human SiHa cell growth in a cell viability assay.

HCC1599 = type: functional, cell-based;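 further: growth inhibition of HCC1599 cells, read out in a cell viability assay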
Description: SANGER: Inhibition of human HCC1599 cell growth in a cell viability assay.

NCI-H1650 = type: functional, cell-based;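 further: growth inhibition of human NCI-H1650 cells measured by a cell viability assay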
Description: SANGER: Inhibition of human NCI-H1650 cell growth in a cell viability assay.

MS-1 = type: functional, cell-based;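 further: growth inhibition of MS-1 cells, read out by cell viability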
Description: SANGER: Inhibition of human MS-1 cell growth in a cell viability assay.

C2BBe1 = type: functional, cell-based;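 further: growth inhibition of C2BBe1 cells, read out through a viability assay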
Description: SANGER: Inhibition of human C2BBe1 cell growth in a cell viability assay.

MEG-01 = type: functional, cell-based;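 further: growth inhibition of MEG-01 cells, read out by a cell viability assay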
Description: SANGER: Inhibition of human MEG-01 cell growth in a cell viability assay.

PFSK-1 = type: functional, cell-based;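 further: cell viability assay measuring how strongly compounds suppress growth of human PFSK-1 cells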
Description: SANGER: Inhibition of human PFSK-1 cell growth in a cell viability assay.

NCI-H358 = type: functional, cell-based;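 further: growth inhibition of NCI-H358 human cells, read out with a cell viability assay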
Description: SANGER: Inhibition of human NCI-H358 cell growth in a cell viability assay.

KURAMOCHI = type: functional, cell-based;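 further: growth inhibition of KURAMOCHI cells, read out with a cell viability assay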
Description: SANGER: Inhibition of human KURAMOCHI cell growth in a cell viability assay.

BT-474 = type: functional, cell-based
Description: SANGER: Inhibition of human BT-474 cell growth in a cell viability assay.

DB = type: functional, cell-based
Description: SANGER: Inhibition of human DB cell growth in a cell viability assay.

NCI-H720 = type: functional, cell-based;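 further: growth inhibition of human NCI-H720 cells determined by a cell viability assay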
Description: SANGER: Inhibition of human NCI-H720 cell growth in a cell viability assay.

LXF-289 cell line = type: functional, cell-based
Description: SANGER: Inhibition of human LXF-289 cell growth in a cell viability assay.

NCI-H1395 = type: functional, cell-based;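 further: cell viability assay read-out quantifying reduced proliferation of human NCI-H1395 cells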
Description: SANGER: Inhibition of human NCI-H1395 cell growth in a cell viability assay.

AM-38 = type: functional, cell-based;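 further: growth inhibition of AM-38 cells of human origin, read out by a cell viability assay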
Description: SANGER: Inhibition of human AM-38 cell growth in a cell viability assay.

RH-1 = type: functional, cell-based;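 further: growth inhibition of human RH-1 cells, read out with a cell viability assay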
Description: SANGER: Inhibition of human RH-1 cell growth in a cell viability assay.

HC-1 = type: functional, cell-based;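 further: growth inhibition of HC-1 cells measured by a cell viability assay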
Description: SANGER: Inhibition of human HC-1 cell growth in a cell viability assay.

COLO-684 = type: functional, cell-based
Description: SANGER: Inhibition of human COLO-684 cell growth in a cell viability assay.

KM-H2 = type: functional, cell-based;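 further: growth inhibition of KM-H2 cells, read out by a cell viability assay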
Description: SANGER: Inhibition of human KM-H2 cell growth in a cell viability assay.

NB5 = type: functional, cell-based;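 further: growth inhibition of NB5 cells, read out as cell viability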
Description: SANGER: Inhibition of human NB5 cell growth in a cell viability assay.

RPMI-8866 = type: functional, cell-based
Description: SANGER: Inhibition of human RPMI-8866 cell growth in a cell viability assay.

MZ7-mel = type: functional, cell-based;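 further: growth inhibition of human MZ7-mel cells, measured by a cell viability assay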
Description: SANGER: Inhibition of human MZ7-mel cell growth in a cell viability assay.

NB6 = type: functional, cell-based;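 further: growth inhibition of NB6 cells, read out by a cell viability assay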
Description: SANGER: Inhibition of human NB6 cell growth in a cell viability assay.

L-540 = type: functional, cell-based;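 further: growth inhibition of the human L-540 cell line, read out with a viability assay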
Description: SANGER: Inhibition of human L-540 cell growth in a cell viability assay.

MSTO-211H = type: functional, cell-based
Description: SANGER: Inhibition of human MSTO-211H cell growth in a cell viability assay.

MV4-11 = type: functional, cell-based, MV-4-11;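 further: cell viability readout measuring growth inhibition of human MV-4-11 cells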
Description: SANGER: Inhibition of human MV-4-11 cell growth in a cell viability assay.

Becker = type: functional, cell-based;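 further: growth inhibition of Becker cells, read out with a cell viability assay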
Description: SANGER: Inhibition of human Becker cell growth in a cell viability assay.

HCC 2998 = type: functional, cell-based;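 further: growth inhibition of human HCC2998 cells, measured with a cell viability read-out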
Description: SANGER: Inhibition of human HCC2998 cell growth in a cell viability assay.

SW780 = type: functional, cell-based;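 further: growth inhibition of the cells, read out with a cell viability assay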
Description: SANGER: Inhibition of human SW780 cell growth in a cell viability assay.

NCI-H292 = type: functional, cell-based;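 further: growth inhibition of NCI-H292 cells, read out with a cell viability assay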
Description: SANGER: Inhibition of human NCI-H292 cell growth in a cell viability assay.

DU-4475 = type: functional, cell-based
Description: SANGER: Inhibition of human DU-4475 cell growth in a cell viability assay.

CP66-MEL = type: functional, cell-based;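 further: growth inhibition of CP66-MEL cells determined in a cell viability assay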
Description: SANGER: Inhibition of human CP66-MEL cell growth in a cell viability assay.

GI-ME-N = type: functional, cell-based;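 further: growth inhibition of human GI-ME-N cells, read out with a cell viability assay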
Description: SANGER: Inhibition of human GI-ME-N cell growth in a cell viability assay.

KE-37 = type: functional, cell-based;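 further: growth inhibition of KE-37 cells, read out with a cell viability assay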
Description: SANGER: Inhibition of human KE-37 cell growth in a cell viability assay.

IST-MEL1 = type: functional, cell-based;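 further: growth inhibition of the cell line, read out with a cell viability assay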
Description: SANGER: Inhibition of human IST-MEL1 cell growth in a cell viability assay.

SCC-15 = type: functional, cell-based;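 further: growth inhibition of SCC-15 cells, read out with a cell viability assay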
Description: SANGER: Inhibition of human SCC-15 cell growth in a cell viability assay.

ES6 = type: functional, cell-based;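 further: growth inhibition of human ES6 cells, read out with a cell viability assay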
Description: SANGER: Inhibition of human ES6 cell growth in a cell viability assay.

SF-268 = type: functional, cell-based;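 further: growth inhibition of SF-268 cells determined with a cell viability assay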
Description: SANGER: Inhibition of human SF268 cell growth in a cell viability assay.

SF-126 = type: functional, cell-based;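 further: growth inhibition of human SF126 cells, read out with a cell viability assay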
Description: SANGER: Inhibition of human SF126 cell growth in a cell viability assay.

SK-N-FI = type: functional, cell-based;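 further: cell viability assay measuring growth inhibition of human SK-N-FI cells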
Description: SANGER: Inhibition of human SK-N-FI cell growth in a cell viability assay.

D-263MG = type: functional, cell-based
Description: SANGER: Inhibition of human D-263MG cell growth in a cell viability assay.

EW-24 = type: functional, cell-based;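 further: human EW-24 cancer cell line, growth inhibition read out via a cell viability assay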
Description: SANGER: Inhibition of human EW-24 cell growth in a cell viability assay.

LB373-MEL-D = type: functional, cell-based;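 further: growth inhibition of the cell line, read out in a cell viability assay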
Description: SANGER: Inhibition of human LB373-MEL-D cell growth in a cell viability assay.

TE-12 = type: functional, cell-based;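 further: growth inhibition of TE-12 cells, read out by a cell viability assay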
Description: SANGER: Inhibition of human TE-12 cell growth in a cell viability assay.

ATN-1 = type: functional, cell-based;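 further: growth inhibition of human ATN-1 cells, read out with a cell viability assay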
Description: SANGER: Inhibition of human ATN-1 cell growth in a cell viability assay.

TGBC24TKB = type: functional, cell-based;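 further: growth inhibition of human TGBC24TKB cells, read out with a cell viability assay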
Description: SANGER: Inhibition of human TGBC24TKB cell growth in a cell viability assay.

GCIY = type: functional, cell-based;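 further: growth inhibition of the human GCIY cell line, read out by a cell viability assay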
Description: SANGER: Inhibition of human GCIY cell growth in a cell viability assay.

HuTu80 = type: functional, cell-based, HUTU-80;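 further: growth inhibition of HuTu80 human cells, determined with a cell viability readout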
Description: SANGER: Inhibition of human HUTU-80 cell growth in a cell viability assay.

MMAC-SF = type: functional, cell-based;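 further: growth inhibition of human MMAC-SF cells, read out with a cell viability assay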
Description: SANGER: Inhibition of human MMAC-SF cell growth in a cell viability assay.

SCC-9 = type: functional, cell-based;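 further: Read-out is a cell viability assay, with values giving inhibition of cell growth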
Description: SANGER: Inhibition of human SCC-9 cell growth in a cell viability assay.

SNB-75 = type: functional, cell-based;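 further: cell viability assay measuring growth inhibition of human SNB-75 cells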
Description: SANGER: Inhibition of human SNB75 cell growth in a cell viability assay.

SW 962 = type: functional, cell-based
Description: SANGER: Inhibition of human SW962 cell growth in a cell viability assay.

IST-MES1 = type: functional, cell-based
Description: SANGER: Inhibition of human IST-MES1 cell growth in a cell viability assay.

NKM-1 = type: functional, cell-based
Description: SANGER: Inhibition of human NKM-1 cell growth in a cell viability assay.

CTV-1 = type: functional, cell-based
Description: SANGER: Inhibition of human CTV-1 cell growth in a cell viability assay.

RS4-11 = type: functional, cell-based
Description: SANGER: Inhibition of human RS4-11 cell growth in a cell viability assay.

KNS-81-FD = type: functional, cell-based
Description: SANGER: Inhibition of human KNS-81-FD cell growth in a cell viability assay.

NCI-H526 = type: functional, cell-based
Description: SANGER: Inhibition of human NCI-H526 cell growth in a cell viability assay.

VA-ES-BJ = type: functional, cell-based
Description: SANGER: Inhibition of human VA-ES-BJ cell growth in a cell viability assay.

Measured: IC50

N#C/C(=C1/Nc2ccccc2S1)c1ccnc(NCCc2cccnc2)n1
3.93 µM: RS4-11
5.48 µM: GCIY
1.4 µM: TE-12
1.9 µM: NCI-H358
2.82 µM: G-401
> 8 µM: NEC8 | Lu-65 | BE-13 | CAL-33 | HO-1-N-1 | Mo | SiHa | HCC1599 | NCI-H1650 | MS-1 | C2BBe1 | MEG-01 | PFSK-1 | BT-474 | DB | NCI-H720 | LXF-289 cell line | NCI-H1395 | AM-38 | RH-1 | HC-1 | COLO-684 | KM-H2 | NB5 | RPMI-8866 | MZ7-mel | NB6 | L-540 | MSTO-211H | SW780 | NCI-H292 | DU-4475 | CP66-MEL | GI-ME-N | KE-37 | IST-MEL1 | SCC-15 | SF-268 | SF-126 | SK-N-FI | D-263MG | EW-24 | LB373-MEL-D | ATN-1 | TGBC24TKB | HuTu80 | MMAC-SF | SCC-9 | SW 962 | IST-MES1 | KNS-81-FD | NCI-H526 | VA-ES-BJ
2.85 µM: CTV-1
2.31 µM: NKM-1
5.27 µM: SNB-75
1.43 µM: MV4-11
4.34 µM: Becker
3.17 µM: HCC 2998
3.51 µM: KURAMOCHI
4.72 µM: ES6

C/C(O)=C(\C#N)C(=O)Nc1cc(Br)ccc1Br
> 16 µM: NEC8 | Lu-65 | BE-13 | G-401 | CAL-33 | HO-1-N-1 | Mo | SiHa | HCC1599 | NCI-H1650 | MS-1 | C2BBe1 | MEG-01 | PFSK-1 | NCI-H358 | KURAMOCHI | BT-474 | DB | NCI-H720 | LXF-289 cell line | NCI-H1395 | AM-38 | RH-1 | HC-1 | COLO-684 | KM-H2 | NB5 | RPMI-8866 | MZ7-mel | NB6 | L-540 | MSTO-211H | MV4-11 | Becker | HCC 2998 | SW780 | NCI-H292 | DU-4475 | CP66-MEL | GI-ME-N | KE-37 | IST-MEL1 | SCC-15 | ES6 | SF-268 | SF-126 | SK-N-FI | D-263MG | EW-24 | LB373-MEL-D | TE-12 | ATN-1 | TGBC24TKB | GCIY | HuTu80 | MMAC-SF | SCC-9 | SNB-75 | SW 962 | IST-MES1 | NKM-1 | CTV-1 | RS4-11 | KNS-81-FD | NCI-H526 | VA-ES-BJ

O=c1[nH]c2ccccc2n1C1CCN(Cc2ccc(-c3nc4cc5[nH]cnc5cc4nc3-c3ccccc3)cc2)CC1
2.31 µM: KURAMOCHI
> 2.56 µM: NEC8 | Lu-65 | BE-13 | G-401 | CAL-33 | HO-1-N-1 | Mo | SiHa | HCC1599 | NCI-H1650 | MS-1 | C2BBe1 | MEG-01 | PFSK-1 | NCI-H358 | BT-474 | DB | NCI-H720 | NCI-H1395 | AM-38 | RH-1 | HC-1 | COLO-684 | KM-H2 | NB5 | RPMI-8866 | MZ7-mel | NB6 | L-540 | MSTO-211H | MV4-11 | Becker | HCC 2998 | SW780 | NCI-H292 | DU-4475 | CP66-MEL | GI-ME-N | IST-MEL1 | SCC-15 | ES6 | SF-268 | SF-126 | SK-N-FI | D-263MG | EW-24 | LB373-MEL-D | TE-12 | ATN-1 | TGBC24TKB | GCIY | HuTu80 | MMAC-SF | SCC-9 | SNB-75 | SW 962 | IST-MES1 | NKM-1 | CTV-1 | RS4-11 | KNS-81-FD | NCI-H526 | VA-ES-BJ
1.84 µM: KE-37
1.76 µM: LXF-289 cell line

Fc1cc(-c2cc[nH]/c(=N/c3ccc(-n4cnc(N5CCOCC5)n4)cc3)n2)cc(N2CCOCC2)c1
0.466 µM: HCC1599
0.505 µM: ATN-1
1.21 µM: TE-12
2.63 µM: MS-1
0.912 µM: NB6
1.18 µM: RPMI-8866
0.205 µM: VA-ES-BJ
1.13 µM: BT-474
0.38 µM: G-401
0.598 µM: KURAMOCHI
1.01 µM: NEC8
0.301 µM: HC-1
1.04 µM: TGBC24TKB
0.537 µM: SF-268
0.811 µM: PFSK-1
1.44 µM: GI-ME-N
1.06 µM: Becker
0.406 µM: ES6
0.129 µM: GCIY
3.16 µM: SF-126
0.28 µM: RS4-11
0.425 µM: NKM-1
0.405 µM: CTV-1
> 5.12 µM: NCI-H720 | NCI-H1395 | NB5 | MSTO-211H | SK-N-FI | EW-24 | SW 962
2.19 µM: LB373-MEL-D
0.684 µM: MEG-01
2.9 µM: MZ7-mel
0.624 µM: NCI-H1650
1.65 µM: Mo
0.377 µM: NCI-H358
0.677 µM: L-540
2.03 µM: HCC 2998
0.543 µM: COLO-684
0.289 µM: KE-37
0.797 µM: LXF-289 cell line
0.725 µM: D-263MG
1.66 µM: Lu-65
1.1 µM: BE-13
0.545 µM: MV4-11
0.82 µM: CP66-MEL
0.291 µM: SNB-75
4.23 µM: HuTu80
0.569 µM: DU-4475
4.95 µM: KNS-81-FD
0.508 µM: NCI-H292
1.36 µM: KM-H2
2.48 µM: MMAC-SF
0.218 µM: SCC-9
0.803 µM: SCC-15
0.611 µM: DB
1.11 µM: SiHa | AM-38
0.894 µM: IST-MEL1
0.617 µM: HO-1-N-1
0.957 µM: NCI-H526
0.764 µM: C2BBe1
1.63 µM: SW780
0.826 µM: CAL-33
0.919 µM: RH-1
1.97 µM: IST-MES1
